{"source": "patent US20040142860A1", "about": "“Central nervous system-derived immune privilege factor and uses thereof” (Yeda Research and Development Co. Ltd., priority 1996, published 2004)", "origin": "cited, not measured here", "tested_on": "ganglion cell degradation in the retina", "settings": "single or repeated injections into the vitreous body", "data": [{"substance": "Threonine-Lysine-Proline [TKP]", "values": [{"measurement": "effect on axotomy-induced ganglion cell degradation in the retina", "value": "retardation of axotomy-induced ganglion cell degradation in the retina"}]}]}
